Results taken from PubChem BioAssay AID266 (DTP/NCI, 2004).
“And” between values parts separate entries of the source, which are not always exact repeats. Equal entries are not always repeated. Records with an inconclusive call do not appear.

Tested on: Nude mice, LX-1 lung xenograft intrarenal, tumor weight T/C
Test: NCI In Vivo Anticancer Drug Screen. Data for tumor model Human Lung LX-1 Xenograft (intrarenal inoculation) in NU/NU BALB/C (nude) mice
Conditions: endpoint: mean tumor weight change, higher = larger tumour
Protocol: The antitumor activity of compounds was measured in mice bearing transplantable tumors. Survival or tumor size were measured and the results are expressed as the measurement made in the treated group (T) divided by the measurement made in the vehicle treated control group (C). The tumor model used in this assay is Human Lung LX-1 Xenograft (intrarenal inoculation) in NU/NU BALB/C (nude) mice

[1] = dose: 150.0 mg/kg/injection, schedule: Q04DX003 (sc), vehicle: saline
[2] = dose: 300.0 mg/kg/injection, schedule: Q04DX003 (sc), vehicle: saline
[3] = dose: 1.25 mg/kg/injection, schedule: Q04DX003 (sc), vehicle: saline
[4] = dose: 200.0 mg/kg/injection, schedule: Q01DX010 (sc), vehicle: Klucel (hydroxypropylcellulose) (HPC)
[5] = dose: 300.0 mg/kg/injection, schedule: Q04DX003 (sc), vehicle: Klucel (hydroxypropylcellulose) (HPC)
[6] = dose: 600.0 mg/kg/injection, schedule: Q04DX003 (sc), vehicle: Klucel (hydroxypropylcellulose) (HPC)
[7] = dose: 2400.0 mg/kg/injection, schedule: Q04DX003 (sc), vehicle: Klucel (hydroxypropylcellulose) (HPC)
[8] = dose: 100.0 mg/kg/injection, schedule: Q01DX010 (sc), vehicle: saline
[9] = dose: 50.0 mg/kg/injection, schedule: Q01DX010 (sc), vehicle: Klucel (hydroxypropylcellulose) (HPC)

O=CNCO
T/C (dose: 250.0 mg/kg/injection, schedule: Q01DX010 (sc), vehicle: water): 72 % of control
T/C (dose: 500.0 mg/kg/injection, schedule: Q01DX010 (sc), vehicle: water): 87 % of control
T/C (dose: 1000.0 mg/kg/injection, schedule: Q01DX010 (sc), vehicle: water): 100 % of control
T/C (dose: 2000.0 mg/kg/injection, schedule: Q01DX010 (sc), vehicle: water): 80 % of control

CN(N=O)C(=O)N[C@@H](C=O)[C@@H](O)[C@H](O)[C@H](O)CO
T/C [1]: 40 % of control
T/C [2]: 4 % of control

c1ccc2c(c1)[As]=c1ccccc1=[As]2 (stereo not drawn)
T/C (dose: 18.75 mg/kg/injection, schedule: Q04DX003 (sc), vehicle: saline): 58 % of control
T/C (dose: 37.5 mg/kg/injection, schedule: Q04DX003 (sc), vehicle: saline): 46 % of control
T/C (dose: 75.0 mg/kg/injection, schedule: Q04DX003 (sc), vehicle: saline): 50 % of control
T/C [1]: 40 % of control

N#CC(OC1OC(COC2OC(CO)C(O)C(O)C2O)C(O)C(O)C1O)c1ccccc1 (stereo not drawn)
T/C [2]: 162 % of control
T/C (dose: 600.0 mg/kg/injection, schedule: Q04DX003 (sc), vehicle: saline): 115 % of control
T/C (dose: 1200.0 mg/kg/injection, schedule: Q04DX003 (sc), vehicle: saline): 193 % of control
T/C (dose: 2400.0 mg/kg/injection, schedule: Q04DX003 (sc), vehicle: saline): 158 % of control

CCOC(=O)N(C)N=NC
T/C (dose: 7.5 mg/kg/injection, schedule: Q04DX003 (ip), vehicle: saline): 57 % of control
T/C (dose: 15.0 mg/kg/injection, schedule: Q04DX003 (ip), vehicle: saline): 51 % of control
T/C (dose: 60.0 mg/kg/injection, schedule: Q04DX003 (ip), vehicle: saline): 14 % of control and 24 % of control

O=C(Nc1cc(Cl)ccc1C(=O)O)c1cccc(C[n+]2ccccc2)c1
T/C (dose: 150.0 mg/kg/injection, schedule: Q04DX003 (ip), vehicle: saline with Tween-80): 67 % of control
T/C (dose: 300.0 mg/kg/injection, schedule: Q04DX003 (ip), vehicle: saline with Tween-80): 100 % of control

NC(=O)CCC(N)C(=O)O (stereo not drawn)
T/C (dose: 75.0 mg/kg/injection, schedule: Q04DX003 (ip), vehicle: suspension in saline): 88 % of control
T/C (dose: 150.0 mg/kg/injection, schedule: Q04DX003 (ip), vehicle: suspension in saline): 77 % of control
T/C (dose: 300.0 mg/kg/injection, schedule: Q04DX003 (ip), vehicle: suspension in saline): 93 % of control
T/C (dose: 600.0 mg/kg/injection, schedule: Q04DX003 (ip), vehicle: suspension in saline): 100 % of control
T/C (dose: 1200.0 mg/kg/injection, schedule: Q04DX003 (ip), vehicle: suspension in saline): 87 % of control

Cc1ccc(S(=O)(=O)N/N=C/C(Br)=C(/Br)C(=O)O)cc1
T/C [3]: 122 % of control
T/C (dose: 5.0 mg/kg/injection, schedule: Q04DX003 (sc), vehicle: saline): 115 % of control
T/C (dose: 10.0 mg/kg/injection, schedule: Q04DX003 (sc), vehicle: saline): 82 % of control

CN(C)/N=N/c1nc[nH]c1C(N)=O
T/C (dose: 100.0 mg/kg/injection, schedule: Q04DX003 (sc), vehicle: Klucel (hydroxypropylcellulose) (HPC)): -25 % of control
T/C [4]: 2 % of control
T/C (dose: 200.0 mg/kg/injection, schedule: Q04DX003 (sc), vehicle: Klucel (hydroxypropylcellulose) (HPC)): -43 % of control
T/C (dose: 400.0 mg/kg/injection, schedule: Q04DX003 (sc), vehicle: Klucel (hydroxypropylcellulose) (HPC)): -91 % of control
T/C (dose: 800.0 mg/kg/injection, schedule: Q04DX003 (sc), vehicle: Klucel (hydroxypropylcellulose) (HPC)): -100 % of control

CN1CCc2c(c3ccccc3c3ccccc23)C1
T/C (dose: 150.0 mg/kg/injection, schedule: Q04DX003 (sc), vehicle: Klucel (hydroxypropylcellulose) (HPC)): 58 % of control
T/C [5]: 55 % of control
T/C [6]: 48 % of control

CN(C)CCC(=O)C(=Cc1ccc(O)cc1)C(=O)CCN(C)C
T/C (dose: 75.0 mg/kg/injection, schedule: Q04DX003 (ip), vehicle: saline): 95 % of control
T/C (dose: 150.0 mg/kg/injection, schedule: Q04DX003 (ip), vehicle: saline): 116 % of control

Cc1ccc(S(=O)(=O)NC(=O)C2C(=O)CC3(CCCCC3)CC2=O)cc1
T/C [5]: 122 % of control
T/C [6]: 101 % of control
T/C [7]: 84 % of control

CC(=O)C(O)N1C(=O)C=CC1=O (stereo not drawn)
T/C (dose: 2.5 mg/kg/injection, schedule: Q01DX010 (sc), vehicle: saline): 73 % of control
T/C (dose: 5.0 mg/kg/injection, schedule: Q01DX010 (sc), vehicle: saline): 92 % of control
T/C (dose: 10.0 mg/kg/injection, schedule: Q01DX010 (sc), vehicle: saline): 101 % of control

CNC(=O)O/N=C(\CN=[N+]=[N-])C(C)(C)C
T/C [3]: 73 % of control

CNC(=O)ON(C(C)=O)C(=O)NC
T/C (dose: 25.0 mg/kg/injection, schedule: Q01DX010 (sc), vehicle: saline): 49 % of control
T/C (dose: 50.0 mg/kg/injection, schedule: Q01DX010 (sc), vehicle: saline): 85 % of control
T/C [8]: 41 % of control

CCCNC1=C(C)C(=O)C2=C(C1=O)[C@H](COC(N)=O)[C@]1(OC)[C@@H]3N[C@@H]3CN21
T/C (dose: 12.0 mg/kg/injection, schedule: Q04DX003 (sc), vehicle: saline + alcohol): 52 % of control
T/C (dose: 24.0 mg/kg/injection, schedule: Q04DX003 (sc), vehicle: saline + alcohol): 8 % of control

CCOC(C)C(/C=N/NC(N)=S)=NNC(N)=S (stereo not drawn)
T/C (dose: 200.0 mg/kg/injection, schedule: Q01DX010 (sc), vehicle: saline with Tween-80): 231 % of control
T/C (dose: 400.0 mg/kg/injection, schedule: Q01DX010 (sc), vehicle: saline with Tween-80): 233 % of control
T/C (dose: 800.0 mg/kg/injection, schedule: Q01DX010 (sc), vehicle: saline with Tween-80): 78 % of control

CC[C@@]1(O)C[C@H](OC2CC(N(C)C)C(OC3CC(O)C(OC4CCC(=O)C(C)O4)C(C)O3)C(C)O2)c2c(cc3c(c2O)C(=O)c2c(O)cccc2C3=O)[C@H]1C(=O)OC (stereo partly drawn)
T/C (dose: 1.0 mg/kg/injection, schedule: Q01DX010 (sc), vehicle: water): 36 % of control
T/C (dose: 1.66 mg/kg/injection, schedule: Q04DX003 (sc), vehicle: water): 63 % of control
T/C (dose: 2.0 mg/kg/injection, schedule: Q01DX010 (sc), vehicle: water): 6 % of control
T/C (dose: 3.33 mg/kg/injection, schedule: Q04DX003 (sc), vehicle: water): 60 % of control
T/C (dose: 6.65 mg/kg/injection, schedule: Q04DX003 (sc), vehicle: water): 18 % of control

Nc1nc(=S)c2ncn(C3CC(O)C(CO)O3)c2[nH]1 (stereo not drawn)
T/C [9]: 152 % of control
T/C (dose: 100.0 mg/kg/injection, schedule: Q01DX010 (sc), vehicle: Klucel (hydroxypropylcellulose) (HPC)): 118 % of control
T/C [4]: 73 % of control
T/C (dose: 400.0 mg/kg/injection, schedule: Q01DX010 (sc), vehicle: Klucel (hydroxypropylcellulose) (HPC)): 107 % of control

CC1=C/C(O)CC(=O)Cc2nc(co2)C(=O)N2CCC=C2C(=O)OC(C(C)C)C(C)/C=C\C(=O)NC/C=C\1 (stereo not drawn)
T/C [5]: 102 % of control
T/C [6]: 90 % of control
T/C (dose: 1200.0 mg/kg/injection, schedule: Q04DX003 (sc), vehicle: Klucel (hydroxypropylcellulose) (HPC)): 69 % of control
T/C [7]: 82 % of control

CCCCNc1ccc2nnc(C)n2n1
T/C (dose: 150.0 mg/kg/injection, schedule: Q04DX003 (ip), vehicle: DMSO): 99 % of control

O=C1N=C(Oc2ccccc2)SC1=O
T/C (dose: 100.0 mg/kg/injection, schedule: Q04DX003 (sc), vehicle: saline with Tween-80): 87 % of control
T/C (dose: 200.0 mg/kg/injection, schedule: Q04DX003 (sc), vehicle: saline with Tween-80): 93 % of control
T/C (dose: 400.0 mg/kg/injection, schedule: Q04DX003 (sc), vehicle: saline with Tween-80): 54 % of control

C[n+]1c(-c2cccc3ccccc23)c2cc(N)ccc2c2ccccc21
T/C (dose: 1.5 mg/kg/injection, schedule: Q04DX003 (sc), vehicle: saline): 164 % of control
T/C (dose: 6.0 mg/kg/injection, schedule: Q04DX003 (sc), vehicle: saline): 113 % of control
T/C (dose: 24.0 mg/kg/injection, schedule: Q04DX003 (sc), vehicle: saline): 112 % of control
T/C (dose: 48.0 mg/kg/injection, schedule: Q04DX003 (sc), vehicle: saline): 78 % of control

Cc1cc2nc3[nH]c4ccccc4c3nc2cc1C
T/C [8]: 88 % of control
T/C (dose: 200.0 mg/kg/injection, schedule: Q01DX010 (sc), vehicle: saline): 190 % of control
T/C (dose: 400.0 mg/kg/injection, schedule: Q01DX010 (sc), vehicle: saline): 92 % of control
T/C (dose: 800.0 mg/kg/injection, schedule: Q01DX010 (sc), vehicle: saline): 97 % of control

O=C(CCBr)N1CCN(C(=O)CCBr)CC1
T/C [9]: 48 % of control
